Results from US9227991B2, “Anti-tumor bivalent platinum complex and preparation method for complex and ligand of complex” (SOUTHEAST UNIVERSITY, priority 2012, dated 2016).

Tests used:
[1] = test system: mouse-transplanted tumor S180 sarcoma; test: Mouse-transplanted tumor animal model, S180; assay type: in vivo, ICR mice; conditions: S180 mice; for Number of Animal End of the test: 10 at beginning
Protocol: (§1) This test example adopts mouse-transplanted tumor animal model method to test the inhibitory effects of the complexes provided by the present invention on animal-transplanted tumor S180 sarcoma and Heps tumor.
Get ICR mice and inoculate solid tumor according to the research method of transplanted tumor. […] Administrate drug by intravenous injection for the first time 24 hours (d1) after the inoculation, administrate drug once every other day for a total of 4 times, at a dose of 0.4 ml/20 g each time. Kill and weigh the tumor-bearing mice days (d10) after the inoculation, separate and weigh the tumor mass, and conduct statistical treatment of all the obtained data (t-test). The inhibitory effect of the complexes on mouse-transplanted tumors S180 and Heps is shown in Table 2 and Table 3 respectively.

[2] = test system: mouse-transplanted tumor Heps; test: Mouse-transplanted tumor animal model, Heps; assay type: in vivo, ICR mice; conditions: Heps mice; for Number of Animal End of the test: 8 at beginning
Protocol: as §1
Get ICR mice and inoculate solid tumor according to the research method of transplanted tumor. Weigh the mice 24 hours after the inoculation and randomly divide them into 7 groups, 8 mice per drug group. Administrate drug by intravenous injection for the first time 24 hours (d1) after the inoculation, administrate drug once every other day for a total of 4 times, at a dose of 0.4 ml/20 g each time. Kill and weigh the tumor-bearing mice days (d10) after the inoculation, separate and weigh the tumor mass, and conduct statistical treatment of all the obtained data (t-test). The inhibitory effect of the complexes on mouse-transplanted tumors S180 and Heps is shown in Table 2 and Table 3 respectively.

[3] = Acute toxicity test in mice (iv), Bliss method; conditions: both, Kunming, mouse, in vivo, iv
Protocol: (§2) The toxicity of the two platinum complexes provided by the present invention was preliminarily researched.
(§3) Select 50 Kunming mice of clean grade, 25 males and 25 females, with body weight 18˜22 g, randomly divide them into 5 groups, 10 mice in each group, and fast for 12 hours. […] The acceptance capacity of an animal is 0.4 mL/20 g. Observe continuously for 14 days after administration, and record toxic symptoms and death of mice.

Solubility in water = assay type: physicochemical
Protocol: As for the platinum complex prepared by the method of the present invention, the molecular structures of the compounds are determined by H NMR, HR ESI-MS and elemental analysis and their solubility in water was determined.

[4] = test system: human lung cancer cell A549; test: MTT cytotoxicity test, A549; assay type: cell-based; conditions: 48 hours
Protocol: (§4) This test example adopts MTT method to conduct cytotoxicity test on the complexes of the present invention and the common clinical anti-cancer platinum drugs.
(§5) Select cells in logarithmic phase, count them and inoculate them in a 96-well culture plate, at about 8000-10000 cells/well. Cultivate the cells overnight, administrate drug after the cells are attached to the wall, and set a drug group, a positive control group and a negative control group. The complex to be tested is prepared into a stock solution by using 5% glucose aqueous solution. Before use, it is diluted with cell culture medium into solutions at a series of concentrations. Each concentration has 3 duplicate wells. Cultivate for 48 hours after administration of drug, add 20 μL of 5 mg/mL MTT, incubate at 37° C. for 4 hours, remove the supernate and add 150 μL of DMSO-dissolved formazan. Determine OD value of every well at 490 nm wavelength by microplate reader, calculate inhibition rate, draw a concentration-inhibition rate curve and calculate value IC50.

[5] = test system: human umbilical vein endothelial cell HUVEC; test: MTT cytotoxicity test, HUVEC; assay type: cell-based; conditions: 48 hours
Protocol: as §4, §5

[6] = test system: human breast cancer cell MCF-7; test: MTT cytotoxicity test, MCF-7; assay type: cell-based; conditions: MCF-7, MTT, 48 hours
Protocol: as §4, §5

[7] = test system: human breast cancer drug resistant cell MCF-7; test: MTT cytotoxicity test, MCF-7 drug resistant; assay type: cell-based; conditions: 48 hours
Protocol: as §4, §5

[8] = test system: human breast cancer cell MDA-MB-231; test: MTT cytotoxicity test, MDA-MB-231; assay type: cell-based; conditions: MDA-MB-231, MTT, 48 hours
Protocol: as §4, §5

[9] = test system: human gastric adenocarcinoma cell BGC823; test: MTT cytotoxicity test, BGC823; assay type: cell-based; conditions: 48 hours
Protocol: as §4, §5

[10] = test system: human hepatoma carcinoma cell HepG-2; test: MTT cytotoxicity test, HepG2; assay type: cell-based; conditions: 48 hours
Protocol: as §4, §5

[11] = test system: human erythroleukemia cell K562; test: MTT cytotoxicity test, K562; assay type: cell-based; conditions: 48 hours
Protocol: as §4, §5

[12] = test system: human acute promyelocytic leukemia cell NB4; test: MTT cytotoxicity test, NB4; assay type: cell-based; conditions: 48 hours
Protocol: as §4, §5

[13] = test system: human large cell lung cancer cell NCI-H460; test: MTT cytotoxicity test, NCI-H460; assay type: cell-based; conditions: 48 hours
Protocol: as §4, §5

[14] = test system: human hepatoma carcinoma cell SMMC-7721; test: MTT cytotoxicity test, SMMC-7721; assay type: cell-based; conditions: SMMC-7721, MTT, 48 hours
Protocol: as §4, §5

Kunming mice = test: Acute toxicity test in mice (iv), Bliss method; conditions: mice, iv via caudal vein, 14 days observation, Bliss method
Protocol: as §2, §3

mouse = conditions: cited from earlier work
[15] = 25 mg/kg iv every other day x4, X ± SD

Row | Structure (SMILES) | Body weight (g) After administration [2, 15] [g] | Number of Animal End of the test ([2]; 25 mg/kg iv every other day x4) | Number of Animal End of the test ([2]; 50 mg/kg iv every other day x4) | IC50 [4] [µM] | IC50 [5] [µM] | IC50 [6] [µM] | IC50 [7] [µM] | IC50 [8] [µM] | IC50 [9] [µM] | IC50 [10] [µM] | IC50 [11] [µM] | IC50 [12] [µM] | IC50 [13] [µM] | IC50 [14] [µM] | also measured
1 | [NH2][Pt]1([NH2])[O]C(=O)C2(CC(=O)C2)C(=O)[O]1 [GSH-5, cis-[3-ketone cyclobutane-1,1-dicarboxylic acid radical.diamineplatinum (II)]] | 22.13 ± 3.52 | 8 | 2 | – | – | – | – | – | – | – | – | – | – | – | Body weight (g) After administration ([1]; 15 mg/kg iv every other day x4, X ± SD): 22.50 ± 1.91 g; Number of Animal End of the test ([1]; 15 mg/kg iv every other day x4): 10; Body weight (g) After administration ([1]; 30 mg/kg iv every other day x4, X ± SD): 18.13 ± 1.76 g; Number of Animal End of the test ([1]; 30 mg/kg iv every other day x4): 8; Body weight (g) After administration ([2]; 50 mg/kg iv every other day x4, X ± SD): 13.50 ± 0.50 g; LD50 at 14 days [3]: 150 mg/kg; solubility (Solubility in water): 16 mg/mL
2 | N[C@@H]1CCCC[C@H]1N.O=C1CC2(C1)C(=O)[O][Pt][O]C2=O [GSH-6, cis-[3-ketone-1,1-cyclobutane-dicarboxylic acid radical.trans-1,2-cyclohexanediamineplatinum(II)]] | 18.10 ± 1.10 | 8 | 0 | 47.5 | 68.9 | 34.2 | 1350 | 36.3 | 8.9 | 31.6 | 36 | 3.1 | 11.9 | 216 | Body weight (g) After administration ([1]; 10 mg/kg iv every other day x4, X ± SD): 20.60 ± 2.50 g; Tumor inhibition rate (%) ([1]; 10 mg/kg iv every other day x4, d10): 33.13%; Tumor weight ([1]; 10 mg/kg iv every other day x4, d10, X ± SD): 0.65 ± 0.14 g; Number of Animal End of the test ([1]; 10 mg/kg iv every other day x4): 10; Body weight (g) After administration ([1]; 20 mg/kg iv every other day x4, X ± SD): 18.60 ± 2.24 g; Tumor inhibition rate (%) ([1]; 20 mg/kg iv every other day x4, d10): 46.61%; Tumor weight ([1]; 20 mg/kg iv every other day x4, d10, X ± SD): 0.52 ± 0.13 g; Number of Animal End of the test ([1]; 20 mg/kg iv every other day x4): 10; Tumor inhibition rate (%) ([2]; 25 mg/kg iv every other day x4, d10): 35.44%; Tumor weight ([2]; 25 mg/kg iv every other day x4, d10, X ± SD): 0.84 ± 0.17 g; LD50 (acute toxicity test) (Kunming mice): 100 mg/kg
3 | O=C1[O][Pt]2([NH][C@@H]3CCCC[C@H]3[NH]2)[O]C1=O [Oxaliplatin, oxaliplatin] | – | – | – | 70.3 | 16.3 | 25.7 | 351 | 29.1 | 7.92 | 27.2 | 23.6 | – | 23.1 | 32.3 | –
4 | N.N.O=C([O-])C1(C(=O)[O-])CCC1.[Pt+2] [Carboplatin, carboplatin] | – | – | – | 137 | 102 | 109 | 457 | 93.3 | 43.2 | 99.1 | 118 | 12.6 | 30.6 | 52.7 | mouse LD50 values in literature (mouse): 139.00 mg/kg
5 | N.N.[Cl][Pt][Cl] [Cis-platinum, cis-platinum] | – | – | – | 16.6 | 11.2 | 32.9 | 32.9 | 18.3 | 5.44 | 2.11 | 10.9 | – | – | – | –
